Experimental data as given in article PMC5554137, “Evaluation of novel factor Xa inhibitors from Oxya chinensis sinuosa with anti-platelet aggregation activity” (Scientific Reports, 2017).

Key:
α-Thrombin = target: T1, α-Thrombin (Homo sapiens, UniProt P00734); test: Chromogenic substrate assay, Ki determination, α-Thrombin; format: biochemical
T1 construct: FXa converts prothrombin to thrombin; purchased Haematologic Technologies (Essex Junction, VT, USA)
Method: (§1) The inhibitor (I) constants (Ki) were determined for the inhibition of a series of human enzymes (FXa, thrombin, trypsin, plasmin, protein Ca, streptokinase, tPA, and urokinase) by each compound. Chromogenic substrate assays were performed using a Labsystems IEMS (Cergy Pontoise, France) microtiter plate reader. In each assay, the compound was tested at a minimum of seven concentrations in duplicate to obtain an inhibition curve. Assays were performed according to the following general procedure. In a 96-well microtiter plate, 25 μL of compound, inhibitor solution or buffer was added to 50 μL of substrate. A volume of 25 μL of enzyme solution was added just before the plate was placed in the microtiter plate reader for 1 h at 37 °C. The hydrolysis of the substrate yields p-nitroaniline, which was continuously monitored spectrophotometrically at 405 nm. Data were collected and the initial rate of substrate hydrolysis [Vo (mOD/minute)] was calculated. Following Michaelis-Menten kinetics, the affinity of the enzyme for the substrate, in the absence of the inhibitor (Km) and in the presence of an inhibitor (Kp), was determined to be the negative inverse x-intercept of Lineweaver–Burk plots. The dissociation constant for inhibition (Ki) was calculated using the following equation: Ki = (Km·[I])/(Kp − Km) as described by Williams and Morrison[40].

HUVECs = test: Production of factor Xa on the surface of TNF-α-stimulated HUVECs; format: cell-based, human; details: 10 min pre-incubation
Method: Figure 6 Effects of compounds 1–4 on inhibition and production of FXa. […] The plots represent means of three independent measurements. (E) Human umbilical vein endothelial cells (HUVECs) were pre-incubated with the indicated concentration of each compound for 10 min. HUVECs stimulated with tumor necrosis factor-α (TNF-α, 10 ng/mL for 6 h) were incubated with FVIIa (10 nM) and FX (175 nM) in the absence or presence of anti-TF IgG (25 µg/mL). FXa production was determined as described in the “ Supplementary Materials and Methods” section. D = 0.2% DMSO used as the vehicle control. (F) Inhibition of FXa by each compound (5 μM) with or without TFPI (2 nM) was monitored using a chromogenic assay. ^* p < 0.05 vs. TNF-α alone (E) or each compound (F) alone, analyzed via one-way ANOVA, followed by Tukey multiple comparison testing.
Production of FXa by FVIIa is dependent on tissue factor (TF) expression in tumor necrosis factor-α (TNF-α)-stimulated HUVECs[22]. Thus, we investigated the effects of compounds 1–4 on the production of FXa by FVIIa. HUVECs were stimulated with TNF-α to induce TF expression, causing an 11.9-fold increase in the rate of FX production by FVIIa (109.4 ± 9.2 nM) over that of non-stimulated HUVECs (9.2 ± 0.8 nM). […] We next determined whether each compound compete with tissue factor pathway inhibitor (TFPI) in the inhibition of FXa. […]

tPA = tPA (Homo sapiens, UniProt P00750); test: Chromogenic substrate assay, Ki determination, tPA; format: biochemical
Method: as §1

C57BL/6 mice = test: Tail bleeding time; format: in vivo; details: tail-cutting assay, mean ± SD, n = 10
Method: Figure 4 Effects of compounds 1–4 on clotting and bleeding time. (A) One hour after administration (intravenous injection) of compound 1 (white box), 2 (light gray box), 3 (dark gray box), or 4 (black box), blood was collected from the mice and platelet-poor plasma (PPP) was obtained by centrifugation at 2,000 × g for 10 min at room temperature to test ex vivo activated partial thromboplastin time (aPTT). (B) Each group received a daily intravenous injection of the indicated compound for four consecutive days. Fifteen minutes after the last administration, blood samples were collected and in vivo aPTT was measured. (C) Fifteen minutes after administration of each compound or aspirin (4.5 or 9 mg/kg for 30 min) or the vehicle, tail tips (3 mm long) were cut from each mouse, and the remaining tail was immediately immersed into saline at 37 °C. Accumulated bleeding times (including periods of re-bleeding) were recorded. D = 0.2% DMSO used as the vehicle control. Data are presented as means ± SD of three independent experiments. *p < 0.05 vs. vehicle alone, analyzed by one-way ANOVA, followed by Tukey multiple comparison testing.
To assess bleeding risk incurred by compounds 1–4, we measured bleeding time in mice treated with each compound (up to 30 µM/mouse) by using a tail-cutting assay; the concentration used was three-fold higher than the doses used for the in vivo anti-thrombotic studies. Aspirin-treated mice (9 mg/kg) served as positive controls. […] However, the bleeding time in mice treated with compounds 1–4 was shorter than that observed in mice treated with aspirin ([…], mean ± SD, n = 10). The dose required to avoid thrombus formation and to protect against paralysis or death in mice was determined to be 5 µM per mouse (Fig. 7C).
Tail bleeding times were measured using the method described by Dejana et al.[37]. Briefly, C57BL/6 mice were fasted overnight prior to the experiments. […] after the i.v. administration of each compound, the tails of the mice were transected […] from their tips. Bleeding time was defined as the time elapsed until bleeding stopped. Bleeding times that exceeding 15 min were recorded as 15 min.

Protein Ca = Protein Ca (Homo sapiens, UniProt P04070); test: Chromogenic substrate assay, Ki determination, Protein Ca; format: biochemical
Method: as §1

[1] = system: Streptokinase (Homo sapiens); test: Chromogenic substrate assay, Ki determination, Streptokinase; format: biochemical
Method: as §1

Chain of tPA (P00750 36-562): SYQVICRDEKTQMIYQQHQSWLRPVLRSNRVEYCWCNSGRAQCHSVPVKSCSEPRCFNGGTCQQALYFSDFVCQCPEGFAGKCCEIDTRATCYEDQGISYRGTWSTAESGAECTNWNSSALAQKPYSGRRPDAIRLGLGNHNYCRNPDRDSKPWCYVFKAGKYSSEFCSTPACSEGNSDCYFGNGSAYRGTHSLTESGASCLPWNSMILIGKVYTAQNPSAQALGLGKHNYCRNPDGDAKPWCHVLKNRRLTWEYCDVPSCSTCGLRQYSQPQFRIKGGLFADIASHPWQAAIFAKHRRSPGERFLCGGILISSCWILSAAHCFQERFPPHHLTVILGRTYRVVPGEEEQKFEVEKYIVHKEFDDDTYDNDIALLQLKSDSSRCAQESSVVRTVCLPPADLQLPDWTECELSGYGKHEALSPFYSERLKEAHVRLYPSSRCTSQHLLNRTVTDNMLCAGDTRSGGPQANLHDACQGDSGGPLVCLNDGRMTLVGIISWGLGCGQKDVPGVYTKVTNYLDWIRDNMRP
Chain of Streptokinase (Homo sapiens) (P00747 581-810 limits assumed): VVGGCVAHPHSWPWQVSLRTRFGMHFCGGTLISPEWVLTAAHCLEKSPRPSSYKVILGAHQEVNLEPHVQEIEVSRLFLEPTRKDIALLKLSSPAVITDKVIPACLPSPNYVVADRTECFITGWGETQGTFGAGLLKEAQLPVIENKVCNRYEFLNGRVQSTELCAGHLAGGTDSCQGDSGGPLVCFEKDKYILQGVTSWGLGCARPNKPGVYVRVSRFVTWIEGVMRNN
Chain of Protein Ca (P04070 212-461 limits assumed): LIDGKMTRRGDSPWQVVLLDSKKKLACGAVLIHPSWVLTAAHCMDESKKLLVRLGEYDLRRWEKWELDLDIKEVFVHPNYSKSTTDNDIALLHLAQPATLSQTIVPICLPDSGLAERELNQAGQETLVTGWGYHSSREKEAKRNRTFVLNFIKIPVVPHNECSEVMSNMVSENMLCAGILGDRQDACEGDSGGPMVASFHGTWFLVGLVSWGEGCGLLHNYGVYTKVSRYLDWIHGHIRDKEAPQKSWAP
Chain of Protein Ca (P04070 43-197 limits assumed): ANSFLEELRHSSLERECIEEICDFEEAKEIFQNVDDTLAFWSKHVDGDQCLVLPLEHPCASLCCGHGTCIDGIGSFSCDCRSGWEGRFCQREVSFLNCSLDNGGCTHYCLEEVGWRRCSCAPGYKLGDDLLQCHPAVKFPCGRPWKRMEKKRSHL

SMILES: CC(=O)NCCc1ccc2c(c1)O[C@H](c1ccc(O)c(O)c1)[C@H](NC(C)=O)O2 [Compound 1, (2 R,3 R)-2-(3′,4′-dihydroxyphenyl)-3-acetylamino-7-(N-acetyl-2″-aminoethyl)-1,4-benzodioxane]
- Ratio = Ki enzyme/Ki Factor Xa, α-Thrombin (α-Thrombin): >100
- Ki (α-Thrombin; substrate S-2238): > 300 µM
- inhibition of FXa production (generation) by FVIIa in HUVECs (HUVECs): strongest inhibition
- Ratio = Ki enzyme/Ki Factor Xa, tPA (tPA): >100
- Ki (tPA; substrate S-2228): > 300 µM
- bleeding time (C57BL/6 mice; mice treated with 10 µM): 13.5 ± 1.3 min
- bleeding time (C57BL/6 mice; mice treated with 30 µM): 14.3 ± 1.2 min
- Ratio = Ki enzyme/Ki Factor Xa, Protein Ca (Protein Ca): >100
- Ki (Protein Ca; substrate S-2366): > 300 µM
- Ratio = Ki enzyme/Ki Factor Xa, Streptokinase [1]: >100
- Ki ([1]; substrate S-2251): > 300 µM
